Values after ≈ are worked out from the molar mass of the structure shown. Values joined by “and” are separate entries in the source; they are usually repeats but may differ in a detail not shown here. Identical values can stand only once. Like-named read-outs stand apart in the source and are kept apart here. Values belong to the compound of their own block, whether it stands above or below them.
Experiments:
PfLysRS [1] = target: T1, PfLysRS (Plasmodium falciparum, UniProt Q8IDJ8); details: cited from earlier work
T1 construct: PfLysRS (77–583) was constructed in the vector pET20b, with a C-terminal 6×His tag; 6xHis (C); made in house; host or cells: E. coli BL21 (DE3)

PfLysRS [2] = target: T1, PfLysRS; assay: ATP hydrolysis assay (Kinase-Glo) on PfLysRS; format: biochemical; details: for IC50: read-out: IC50 against PfLysRS
Method: (§1) The ATP hydrolysis assays were based on Kinase-Glo luminescent Kit (Promega). The experiment was carried out in Corning 384-well white flat bottom microplates. The buffer in the reaction contains 25 mM Hepes pH 7.4, 140 mM NaCl, 40 mM MgCl2, 30 mM KCl, 1 mM TCEP, 0.1 mg·mL^−1 BSA, and 0.004% Tween-20. The compounds were diluted to different concentrations with a 5-fold gradient.
(§2) For LysRS assays, DMSO was added into negative control wells and L-lysine was removed in positive control wells. 100 nM LysRS in 2.5 μL Hepes buffer was mixed with compounds and incubated for 10 min. Then 5 μL substrate mixture (2 μM ATP, 10 μM L-lysine and 31 nM pyrophosphatase) was added to start the reaction at 37 °C and incubated for 6 h.
(§3) When the reaction reaches the planned time, 10 μL diluted Kinase-Glo reagent (1/50 diluted with a buffer containing 50 mM Tris pH 7.5 and 5% glycerol) was added and incubated for 15 min. Luminescence was measured on the Magellan plate reader (Tecan) and nonlinear regression was performed with Prism (GraphPad).

[3] = tested on: erythrocytic-stage P. falciparum 3D7 parasites; parameters: method as in PMID 33053158; details: read-out: EC50, growth of erythrocytic-stage P. falciparum 3D7; cited from earlier work
[4] = Solubility noted in the cytotoxicity assay; format: physicochemical; details: highest concentration limited to 100 μM in cell medium
Method: Cell viability was analyzed by Cell Counting Kit-8 (CCK8, ApexBio) according to the manufacturer’s protocols. Cells were seeded and cultured at a density of 2.5 × 10^3 cells per well in 100 μL medium in 96-well microplates (Corning). Then, the cells were treated with different concentrations of compound (0, 1 μM, 3 μM, 10 μM, 100 μM, 300 μM). […] After treatment for 72 h, 10 μL of CCK-8 reagent was added to each well and then cultured for 4 h. All experiments were performed in pentaplicate. The absorbance was analyzed at 450 nm using a microplate reader (Tecan) using medium without cells as blanks. Data was processed using GraphPad Prism 9.

HsLysRS = target: T2, HsLysRS (Homo sapiens, UniProt Q15046); assay: ATP hydrolysis assay (Kinase-Glo) on HsLysRS; format: biochemical
T2 construct: HsLysRS (70–581) was constructed in the vector pET20b with a C-terminal 6×His tag; 6xHis (C); made in house; host or cells: E. coli (pET20b; 'purified similarly' to PfLysRS, which was expressed in BL21 (DE3))
Method: as §1, §2, §3

PfLysRS [5] = target: T1, PfLysRS; assay: Thermal shift assay; format: binding
Method: PfLysRS protein was prepared at 10 μM concentration in a buffer containing 20 mM Tris pH 8.0, 200 mM NaCl, 500 μM L-lysine, and 200 μM Compound. Aliquots (18 µL) were added to a 96-well PCR plate and incubated at ambient temperature for 10 min. SYPRO Orange dye (Sigma) was diluted in the assay buffer containing 20 mM Tris pH 8.0 and 200 mM NaCl to a 40× concentration, and 2 µL of the 40× dye solution was added to the PCR plate to bring the final assay volume to 20 µL. After complete mixing, the final solutions were heated from 25 to 90 °C at a rate of 0.015 °C per sec, and fluorescence signals were monitored by QuantStudio 3 (Applied Biosystems by Thermo Fisher Scientific).

ALK = target: T3, ALK (Homo sapiens, UniProt Q9UM73); assay: ATP hydrolysis assay (Kinase-Glo) on ALK; format: biochemical; details: read-out: IC50 against ALK
T3 construct: The plasmid pCDNA3.1_8×His-tev-ALK (kinase domain, 1068–1410) was constructed; 8xHis (N); TEV site (N); made in house; host or cells: Expi293 cells (transient transfection)
Method: as §1
For ALK assays, DMSO was added into negative control wells. 100 nM ALK in 2.5 μL Hepes buffer was mixed with compounds and incubated for 10 min. Then 5 μL substrate (2 μM ATP) was added to start the reaction at 37 °C and incubated for 6 h.
as §3

PfLysRS [6] = target: T1, PfLysRS; assay: Surface plasmon resonance (SPR) assay; format: binding; details: immobilized PfLysRS
Method: PfLysRS was chemically immobilized on a Biacore CM5 sensorchip (immobilization level ~20000 resonance unit/RU) at pH 5.0 according to the immobilization kit (GE Healthcare). PfLysRS (1.7 nM) was captured for 90 s at a flow of 30 µL·min^−1. Affnity between PfLysRS and compounds was measured by SPR on a Biacore 8 K (GE Healthcare) at 25 °C with a running buffer (0.02 M phosphate buffer pH 7.4, 2.7 mM KCl, 0.137 M NaCl, 0.05% Tween 20, with 1 mM L-lysine). The association time was 90 s, the dissociation time was 120 s, and the flowrate was 30 µL·min^−1. Kinetic evaluation of the interaction between LysRS and compounds was performed by global fitting of the data to a 1:1 interaction model using Biacore Evaluation Software 3.1 (GE Healthcare).

Staphylococcus aureus = tested on: Staphylococcus aureus; parameters: method as in PMID 6258580, PMID 659331, PMID 3923922; details: cited from earlier work
P. falciparum ProRS = details: sentence of the first manuscript quoted in the peer review file; read-out: dissociation constant (KD); cited from earlier work
[7] = +Lysine, sheet Figure 6B, in °C (unit assumed)

T1 sequence (Q8IDJ8 entry or part of it): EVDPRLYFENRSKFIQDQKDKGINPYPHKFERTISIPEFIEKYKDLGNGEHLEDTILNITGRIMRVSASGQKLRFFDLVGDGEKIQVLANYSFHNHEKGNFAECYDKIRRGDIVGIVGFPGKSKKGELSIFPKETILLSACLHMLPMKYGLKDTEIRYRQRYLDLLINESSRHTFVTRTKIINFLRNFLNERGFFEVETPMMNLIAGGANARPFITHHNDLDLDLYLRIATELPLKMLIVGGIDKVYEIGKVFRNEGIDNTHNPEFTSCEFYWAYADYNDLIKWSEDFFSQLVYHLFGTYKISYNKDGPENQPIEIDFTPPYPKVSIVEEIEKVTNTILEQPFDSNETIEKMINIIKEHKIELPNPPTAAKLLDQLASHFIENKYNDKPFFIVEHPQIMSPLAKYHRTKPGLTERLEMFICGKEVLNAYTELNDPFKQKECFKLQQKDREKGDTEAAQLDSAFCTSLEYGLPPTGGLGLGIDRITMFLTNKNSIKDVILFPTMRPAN
T2 sequence (Q15046 70-581): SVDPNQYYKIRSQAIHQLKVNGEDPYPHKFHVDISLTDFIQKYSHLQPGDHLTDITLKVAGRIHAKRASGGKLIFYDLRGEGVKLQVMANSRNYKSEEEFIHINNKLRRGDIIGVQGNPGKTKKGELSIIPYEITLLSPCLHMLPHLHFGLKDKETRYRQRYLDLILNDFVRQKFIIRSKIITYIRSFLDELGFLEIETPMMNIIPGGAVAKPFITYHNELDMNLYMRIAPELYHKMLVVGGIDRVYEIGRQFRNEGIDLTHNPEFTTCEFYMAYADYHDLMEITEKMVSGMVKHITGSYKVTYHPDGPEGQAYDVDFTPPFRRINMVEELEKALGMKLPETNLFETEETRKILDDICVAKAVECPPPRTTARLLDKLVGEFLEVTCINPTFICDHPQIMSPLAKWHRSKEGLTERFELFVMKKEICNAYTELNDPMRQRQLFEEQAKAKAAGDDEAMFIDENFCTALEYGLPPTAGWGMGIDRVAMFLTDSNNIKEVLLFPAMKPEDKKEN
T3 sequence (Q9UM73 1068-1410): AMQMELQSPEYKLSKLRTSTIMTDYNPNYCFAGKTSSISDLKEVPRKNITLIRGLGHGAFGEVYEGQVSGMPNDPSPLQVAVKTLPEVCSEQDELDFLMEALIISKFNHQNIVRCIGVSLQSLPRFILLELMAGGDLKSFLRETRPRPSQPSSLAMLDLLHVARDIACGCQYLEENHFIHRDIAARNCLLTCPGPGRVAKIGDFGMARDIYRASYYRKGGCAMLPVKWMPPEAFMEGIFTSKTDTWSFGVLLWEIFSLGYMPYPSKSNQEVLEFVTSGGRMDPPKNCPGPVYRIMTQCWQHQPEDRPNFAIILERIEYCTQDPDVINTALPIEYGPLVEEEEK

SMILES: COc1cc(N2CCC(N3CCN(C)CC3)CC2)ccc1Nc1ncnc(Nc2ccccc2S(=O)(=O)C(C)C)n1 [ASP3026, N-{2-Methoxy-4-[4-(4-methylpiperazin-1-yl)piperidin-1-yl]phenyl}-N’-[2-(propane-2-sulfonyl)phenyl]-1,3,5-triazine-2,4-diamine]
IC50 (PfLysRS [1]; another kit, different buffer system, ref nucleic acid research paper, read-out: previously reported IC50 against PfLysRS): 657 ± 195 nM | inhibitory effect on human ALK stronger than on PfLysRS (PfLysRS [1]; ref original Nucleic Acid Research paper): about 200 times | IC50 (PfLysRS [2]): 967 ± 170 nM | EC50 [3]: 5610 nM

apparent selectivity index for HsLysRS (HsLysRS; PfLysRS vs HsLysRS): 200 | IC50 (HsLysRS; read-out: IC50 against HsLysRS): 12000 nM | HillSlope (best-fit value) (PfLysRS [2]; PfLysRS): 1.065 | LogIC50 (best-fit value) (PfLysRS [2]; PfLysRS, log of nM): 1.772 | IC50 (PfLysRS [2]): 59.2 nM | △Tm of PfLysRS (PfLysRS [5]; +Lysine, sheet Figure 6B): 12.798 | Tm of PfLysRS, Average (PfLysRS [5]; [7]): 57.818 | Tm of PfLysRS, single repeat (PfLysRS [5]; [7]): 57.710 and 57.895 and 57.833 | ΔTm at 200 µM (PfLysRS [5]; in the presence of L-lysine): 12.8 °C | IC50 (ALK): > 74400 nM | koff (PfLysRS [6]): 0.0113 s⁻¹ | kon (PfLysRS [6]): 911000 M/s | Kd (PfLysRS [6]; 1 mM L-lysine in running buffer, read-out: dissociation constant (KD)): 12.4 nM
SMILES: COc1ccc(OC)c(Nc2ncnc(Nc3ccccc3S(=O)(=O)CCCNC(=O)[C@@H](N)CCCCN)n2)c1 [Compound 36K3]
solubility [4]: poor solubility

SMILES: C/C(=C\C(=O)OCCCCCCCCC(=O)O)C[C@@H]1OC[C@H](C[C@@H]2O[C@H]2[C@@H](C)[C@H](C)O)[C@@H](O)[C@H]1O [Mupirocin]
MIC (Staphylococcus aureus): 0.05 µg/mL (≈ 0.0999 µM)

SMILES: O=C(CC1NCCCC1O)Cn1cnc2cc(Br)c(Cl)cc2c1=O (centres unmarked) [Halofuginone]
Kd (P. falciparum ProRS): 19 nM

From article PMC11189516, “Structure-guided conversion from an anaplastic lymphoma kinase inhibitor into Plasmodium lysyl-tRNA synthetase selective inhibitors” (Communications Biology, 2024)
